Holding throughout (type): in vivo, human
A short description of assay [1]: Body weight of weight loss program patients on thyroid hormone treatment. As to the method:
The first patient example is a person, 5′2″, weight 268 lbs, body mass index (BMI) 49 (nl 19-24; overweight 25-29; obesity≧30). Baseline blood pressure was 110/74, blood sugar (BS) was 153 mg/dL 10 days after their first visit. Their medical problems at baseline included obesity, type 2 diabetes mellitus (DM2), high blood pressure (HTN), fatigue, depression, and asthma. Their medications included glipizide 10 mg daily, amitriptyline 50 mg daily, metoprolol 50 mg daily, furosemide 40 mg daily, potassium chloride, lisinopril 10 mg daily, Advair Discus 500/50 twice daily (bid), and montelukast 10 mg daily. They were started on our comprehensive program. Five months after starting their weight loss treatment, they developed symptoms of hypothyroidism with constipation and fatigue. They had lost 28 lbs by this time and was having difficulty losing more weight even though they were eating less than they were before their weight loss treatment began. At the start of treatment, their FT4 was 0.9 ng/dL (nl 0.7-1.48). At the time of their low thyroid symptoms, their FT3 was 2.9 pg/mL (nl 1.71-3.71) and their FT4 was 0.91 ng/dL (nl 0.7-1.48). They were then treated with thyroid hormone (desiccated thyroid with a ratio of T4:T3 of about 4:1) at 60 mg daily for 6 days to acclimate, then increased to 120 mg daily. […] After two years on their weight loss treatment, their weight was 231 lbs. […]

The nature of assay [2]: Blood pressure and pulse of weight loss program patients on thyroid hormone treatment. The method, then:
(§1) The first patient example is a person, 5′2″, weight 268 lbs, body mass index (BMI) 49 (nl 19-24; overweight 25-29; obesity≧30). Baseline blood pressure was 110/74, blood sugar (BS) was 153 mg/dL 10 days after their first visit. Their medical problems at baseline included obesity, type 2 diabetes mellitus (DM2), high blood pressure (HTN), fatigue, depression, and asthma. Their medications included glipizide 10 mg daily, amitriptyline 50 mg daily, metoprolol 50 mg daily, furosemide 40 mg daily, potassium chloride, lisinopril 10 mg daily, Advair Discus 500/50 twice daily (bid), and montelukast 10 mg daily. They were started on our comprehensive program. Five months after starting their weight loss treatment, they developed symptoms of hypothyroidism with constipation and fatigue. They had lost 28 lbs by this time and was having difficulty losing more weight even though they were eating less than they were before their weight loss treatment began. At the start of treatment, their FT4 was 0.9 ng/dL (nl 0.7-1.48). At the time of their low thyroid symptoms, their FT3 was 2.9 pg/mL (nl 1.71-3.71) and their FT4 was 0.91 ng/dL (nl 0.7-1.48). They were then treated with thyroid hormone (desiccated thyroid with a ratio of T4:T3 of about 4:1) at 60 mg daily for 6 days to acclimate, then increased to 120 mg daily. […] After two years on their weight loss treatment, their weight was 231 lbs. […] We tested for rT3 at this point. Their labs on the 150 mg dose of desiccated thyroid were: rT3 394 pg/mL (nl 90-350), FT3 3.94 pg/mL (nl 1.71-3.71), and FT4 1.24 ng/dL (nl 0.7-1.48). The task of bringing down their rT3 was then addressed. Over a period of a few months, their desiccated thyroid hormone was discontinued and instead the patient was given gradually increasing doses of T3 only, starting at 20 mcg daily and gradually increasing the T3 to 60 mcg bid. Five months after starting on T3 with increasing doses, their weight had dropped to 209 lbs. Their BP was 118/66 mmHg with pulse of 74 on lisinopril 10 mg daily, metoprolol 50 mg bid, and furosemide 40 mg daily. Instead of glipizide, they were taking metformin 500 mg bid. […] Their most recent labs on 60 mcg bid of T3 were FT3 3.8 pg/mL (nl 1.71-3.71), FT4 0.64 ng/dL (nl 0.7-1.48) and rT3 137 pg/mL (nl 90-350). Four months prior to this visit their BS was 125 mg/dl.
(§2) The second patient example is a person, 5′2″, weight 150 lbs, BMI 28 (nl 18.5-24.9; overweight 25-29.9; obesity≧30), with HTN. Their blood pressure was slightly elevated at 148/85 (on lisinopril 5 mg daily). Their medical problems at baseline included history of Hashimoto's thyroiditis, borderline high TSH, elevated lipids, and HTN. Their medications were lisinopril 5 mg daily, estradiol 2 mg daily, and rofecoxib 25 mg daily for osteoarthritis of their large joints. […]

Assay [3] in a line: Low thyroid symptoms / clinical status of weight loss program patients on thyroid hormone treatment. As to the method:
as §1, §2

The mark [4] stands for this setting: Patient Example 2, T3 only, 25 mcg bid.
Where [5] appears, read: Patient Example 1, on T3 only, with lisinopril, metoprolol, furosemide.

For the molecule `N[C@@H](Cc1cc(I)c(Oc2ccc(O)c(I)c2)c(I)c1)C(=O)O` [T3, (2S)-2-amino-3-[4-(4-hydroxy-3-iodo-phenoxy)-3,5-diiodo-phenyl]propanoic acid], the weight is given as 209 lbs in assay [1] (Patient Example 1, five months after starting T3 only, 20 mcg daily increasing to 60 mcg bid) and 125 lbs in assay [1] (setting [4]). Further, the BP was 118/66 in assay [2] (setting [5]) and 122/80 in assay [2] (Patient Example 2, T3 only, 25 mcg bid, on no medications). Moreover, the pulse in assay [2] (setting [5]) amounted to 74; in assay [2] (setting [4]), 72. For the same molecule, the clinical thyroid status result in assay [3] (Patient Example 1, on T3 only) is recorded as “clinically euthyroid”. Besides, the lipids result in assay [3] (setting [4]) is on record as “improved compared to baseline”. In addition, the low thyroid symptoms result in assay [3] (setting [4]) is “no longer suffered from hair loss; their bowels were normal, they felt well”.

Source of the values: patent US20150320709A1, “METHODS AND COMPOSITIONS FOR FACILITATING WEIGHT LOSS BY ADMINISTRATION OF THYROID HORMONES” (priority 2011, published 2015).
